From US12643867B2, “Compositions and uses thereof” (University of Virginia Patent Foundation, priority 2017, dated 2026)

Assays:
[1] = target: Zeta (DGK zeta) (Homo sapiens, UniProt Q13574); assay: DGK isoform % Activity screen; assay type: biochemical
[2] = target: T1, DGKA (Diacylglycerol kinase alpha) (Rattus norvegicus, UniProt P51556); assay: SILAC LC-MS ATP acyl phosphate probe competition, recombinant DGK-HEK293T lysates; assay type: binding; conditions: ATP 1 mM, Ketanserin, Ritanserin 100 μM, RF001 1 mM; for SILAC ratio, DGKA C1 probe-modified peptide: site C1 (K237); for SILAC ratio, DGKA DAGKa probe-modified peptide: site DAGKa (K539); for SILAC ratio, DGKA DAGKc probe-modified peptide: site DAGKc (K377)
T1 construct: expressed in transfected cells; host or cells: HEK293T (SILAC HEK293T for LC-MS)
T1 sequence (P51556 whole entry): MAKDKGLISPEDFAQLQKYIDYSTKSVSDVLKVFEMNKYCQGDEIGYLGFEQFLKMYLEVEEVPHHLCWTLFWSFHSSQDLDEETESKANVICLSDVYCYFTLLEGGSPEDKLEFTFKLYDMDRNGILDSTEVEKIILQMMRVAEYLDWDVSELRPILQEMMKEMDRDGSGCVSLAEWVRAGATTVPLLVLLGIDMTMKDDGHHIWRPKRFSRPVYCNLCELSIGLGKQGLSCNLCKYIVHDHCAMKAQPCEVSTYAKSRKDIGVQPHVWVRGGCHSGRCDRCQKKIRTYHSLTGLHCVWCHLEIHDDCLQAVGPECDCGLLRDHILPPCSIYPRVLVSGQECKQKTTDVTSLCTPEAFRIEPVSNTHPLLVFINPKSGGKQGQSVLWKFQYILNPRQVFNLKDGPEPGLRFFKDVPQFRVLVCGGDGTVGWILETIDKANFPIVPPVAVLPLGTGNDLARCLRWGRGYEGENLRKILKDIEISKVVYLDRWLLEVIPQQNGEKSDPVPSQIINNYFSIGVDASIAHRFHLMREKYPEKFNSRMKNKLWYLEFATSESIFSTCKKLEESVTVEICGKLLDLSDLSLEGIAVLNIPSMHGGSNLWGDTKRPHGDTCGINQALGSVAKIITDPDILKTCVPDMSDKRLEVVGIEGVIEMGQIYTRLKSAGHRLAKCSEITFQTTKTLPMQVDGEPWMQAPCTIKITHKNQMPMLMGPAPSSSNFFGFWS
Procedure: All other vectors were gifted to Dr. Kevin Lynch (University of Virginia, School of Medicine) by Dr. Kaoru Goto (Yamagata University, School of Medicine) and Dr. Fumio Sakane (Chiba University) and were kindly shared with us: pcDNA3-FLAG-DGKA (rat), pCMV-Tag2B-FLAG-DGKQ (human), pcDNA3-DGKE-3×Flag (human), and pCMV-SPORT6-HA-DGKZ (human). HEK293T cells were plated at a concentration of 400,000 cells in complete DMEM and grown to 50-60% confluency. A polyethyleneimine (PEI) stock solution was prepared (1 mg/mL, pH 7.4) and filter sterilized. Serum-free DMEM (600 μL) was mixed gently with 2.6 μg DNA and 20 μL of sterile PEI (1 mg/mL, pH 7.4) in a sterile microfuge tube. Mixtures were incubated for 30 min at 25° C. The mixture was then added drop-wise to each 10 cm^2 plate, rocked back and forth to mix, and placed back in the incubator. Cell pellets were harvested after two full days of growth, snap-frozen in liquid N2, and stored at −80° C. until use. Recombinant proteins were produced by transient transfection in SILAC HEK293T cells using the procedure described above, except that cells were plated at a concentration of 1×10^6 cells per 10 cm^2 plate and grown to ˜70% confluency prior to introducing transfection mixture.
Proteomes were diluted to 2 mg/ml in kinase buffer. The light and heavy proteomes (0.5 mg, 250 μL total reaction volume) were pre-treated with vehicle or compound, respectively (5 μL, DMSO (light) or 50× stock in DMSO (heavy)), mixed gently, and incubated at 25° C. for 30 min. […] After incubation, matched light and heavy proteomes were transferred and mixed in a 1:1 ratio in a two-dram vial containing 4:1:3 MeOH/CHCl3/H2O (2 mL MeOH, 500 AL CHCl3, 1.5 mL H2O) for extraction of proteins to remove excess probe, quickly vortexed, and centrifuged at 1,400×g for 3 min to pellet protein. Organic and aqueous layers were removed using a Pasteur pipette, and the protein pellet was transferred to a screw-top tube in 600 μL MeOH. A second extraction was performed by adding CHCl3 (150 μL) and H2O (600 μL) to each sample, vortexed, and centrifuged at 1,400×g for 3 min to pellet protein. Organic and aqueous layers were removed by pipetting. MeOH added to pellet (600 μL) and pellets were re-suspended by sonication (3×1 sec pulse, 20% amplitude) for a final extraction. Samples were then centrifuged at 17,000×g for 5 min to pellet protein and MeOH was removed by pipetting. […] To desalt the samples, each was transferred to a two-dram glass vial, and to the vial 4:1:2 MeOH/CHCl3/H2O (2 mL MeOH, 500 AL CHCl3, 1 mL H2O) was added. The vials were vortexed quickly, spun at 1.400×g for 3 min to pellet protein, and aqueous and organic layers were removed using a Pasteur pipette. The resulting protein pellet was transferred to a screw-top tube in 600 μL MeOH, and then CHCl3 (150 μL) and HO (600 μL) were added to extract protein a second time. The samples were vortexed quickly, centrifuged at 1,400×g to pellet protein, and the aqueous and organic layers were removed by pipetting. Resulting protein pellet was suspended in MeOH (600 μL) via sonication (3×1 sec pulse, 20% amplitude), centrifuged at 17,000×g for 5 min to pellet protein, and MeOH removed by pipetting. Protein pellets were then re-suspended in 25 mM ammonium bicarbonate (500 μL) and digested with 7.5 μg Trypsin/Lys-C(Promega, 15 μL, 0.5 μg/μL) for 3 h at 37° C. Avidin-agarose beads (Thermo Scientific Pierce, 100 AL aliquot per sample) were washed three times by adding 10 mL DPBS, centrifuged at 1,400×g for 1 min, and decanting. This wash step was repeated for a total of 3 times. Digested protein samples were mixed with washed avidin beads (100 μL) and brought to a volume of 5.5 mL with DPBS in a 15 mL conical and rotated for 1 h to enrich samples for the covalent desthiobiotin modification. The beads were washed with 25 mM ammonium bicarbonate (3× with 10 mL, centrifuge at 1,400×g for 3 min, decant) and then H2O (3× with 10 mL, centrifuge at 1,400×g for 3 min, decant).

Sequence of Zeta (DGK zeta) (Q13574 whole entry, canonical isoform): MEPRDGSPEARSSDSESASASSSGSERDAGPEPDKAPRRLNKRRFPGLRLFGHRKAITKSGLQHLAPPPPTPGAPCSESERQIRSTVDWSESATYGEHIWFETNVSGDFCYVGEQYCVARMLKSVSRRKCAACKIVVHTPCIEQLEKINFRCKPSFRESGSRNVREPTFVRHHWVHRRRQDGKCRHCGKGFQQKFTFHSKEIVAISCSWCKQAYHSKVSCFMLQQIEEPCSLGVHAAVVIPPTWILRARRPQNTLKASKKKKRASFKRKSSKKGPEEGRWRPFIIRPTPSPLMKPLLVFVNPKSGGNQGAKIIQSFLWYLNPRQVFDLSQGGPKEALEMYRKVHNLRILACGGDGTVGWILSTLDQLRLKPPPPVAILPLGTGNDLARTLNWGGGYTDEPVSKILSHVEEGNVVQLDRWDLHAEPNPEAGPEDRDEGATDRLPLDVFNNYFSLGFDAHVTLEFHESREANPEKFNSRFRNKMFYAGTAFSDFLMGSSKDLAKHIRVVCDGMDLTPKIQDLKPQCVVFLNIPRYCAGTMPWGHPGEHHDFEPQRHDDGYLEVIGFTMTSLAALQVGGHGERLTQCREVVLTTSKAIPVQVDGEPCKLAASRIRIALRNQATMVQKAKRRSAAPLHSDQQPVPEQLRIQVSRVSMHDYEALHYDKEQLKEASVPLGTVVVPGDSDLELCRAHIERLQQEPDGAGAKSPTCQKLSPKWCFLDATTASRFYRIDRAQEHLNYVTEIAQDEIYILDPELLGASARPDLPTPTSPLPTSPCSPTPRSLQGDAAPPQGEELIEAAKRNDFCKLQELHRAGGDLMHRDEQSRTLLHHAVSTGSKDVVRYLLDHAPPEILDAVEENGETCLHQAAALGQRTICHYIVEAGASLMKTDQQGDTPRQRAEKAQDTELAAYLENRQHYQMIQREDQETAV

Structure (SMILES) | activity at 100 µM [1] | SILAC ratio, DGKA C1 probe-modified peptide [2] | SILAC ratio, DGKA DAGKa probe-modified peptide [2] | SILAC ratio, DGKA DAGKc probe-modified peptide [2] | activity at 1000 µM ([1]; read-out: 1 mM % Activity, Zeta)
O=C(c1ccc(F)cc1)C1CCN(CCn2c(=O)[nH]c3ccccc3c2=O)CC1 [Ketanserin] | 90% | 1.4 | 1.3 | 1.2 | 
Cc1nc2sccn2c(=O)c1CCN1CCC(=C(c2ccc(F)cc2)c2ccc(F)cc2)CC1 [Ritanserin] | 86% | 7.0 | 7.0 | 2.0 | 
Fc1ccc(C(=C2CCNCC2)c2ccc(F)cc2)cc1 [RF001, 4-(Bis(4-fluorophenyl)methylene) piperidine] | 80% | 12.6 | 9.1 | 1.7 | 0%
